The test system of assay [1] is P. falciparum-infected RBCs (iRBCs) and co-cultured uninfected RBCs (uRBCs). Description: Microfluidic deformability (cell mobility) of RBCs after artesunate drug treatment. The assay is classed as cell-based, human. The settings on record: for separation resolution between iRBCs and uRBCs: after artesunate drug treatment; for effect on RBC deformability (cell mobility): artesunate 0.01 to 0.1 μg/ml, 2, 4 and 6 hours. Here is the method:
FIG. 60 provides cell mobility plots for both infected cells (shown by diamond symbols) and co-cultured uninfected cells (shown by circle symbols) with and without Artesunate drug treatment. The drug effect was traced at 2, 4 and 6 hours after drug treatment. Measurements were done at physiologically relevant dosage from 0.01 to 0.1 μg/ml.
The deformability of both iRBCs and uRBCs were measured at 2, 4 and 6 hours after artesunate drug treatment (FIG. 60). A synchronized culture of rings with ˜15% parasitemia was resuspended at 0.1% hematocrit in malaria culture medium containing 0.01, 0.05 or 0.1 μg/ml of artesunate.
P. falciparum 3D7A parasites (from Malaria Research and Reference Reagent Source, American Type Culture Collection) were cultured in leukocyte-free human RBCs (Research Blood Components, Brighton Mass.) in RPMI 1640 complete medium as described (Trager and Jensen J. parasitol. 2005). Parasites cultures were synchronized by sorbitol lysis (Lambros, C 1979 J. parasitol.) two hours after merozoite invasion.
1× Phosphate buffered saline (PBS) was mixed with 1% w/v Bovine Serum Albumin (BSA) (Sigma-Aldrich, St. Louis, Mo.) as a stock solution and was fresh made on every experimental day. For experiments tracking fluid flow velocity, 200 nm FluoSpheres europium luminescent microspheres (Molecular Probes, Eugene, Oreg.) were used at a final concentration of 5.0×10^−4 percent solids. For experiments involving only healthy RBCs, fresh whole blood (Research Blood Components, Brighton, Mass.) was used at 100 times dilution (i.e. 1 μl whole blood with 99 μl stock solution). For experiments involving parasitized cells, 1 ml of cultured cells were spun down at 1,000 rpm for 5 minute; 1 μl of the pellet was then aliquot to 200 μl stock solution.
10 μl of 1×10^−6M thiazole orange Orange (Invitrogen, Carlsbad, Calif.), which stains the RNA of the cell, was added to the aforementioned 200 μl iRBC solution 20 minutes before the experiment. The infected cells would appear fluorescent under the GFP filter set whereas the uninfected cells were seen as dark shadows.
To control the ambient temperature, the microscope surface was replaced by a heating chamber (Olympus), which was preheated to a desired temperature range (i.e. 30-40° C.) for 30 minutes before the beginning of every experiment. Meanwhile, the PBS-BSA stock solution was injected into the device to coat the PDMS walls to prevent adhesion. This filling step need not be done inside the heating chamber, but the PBS-BSA filled device needed to be placed into the heating chamber at least 5 minutes before loading 10 μL of diluted blood sample. During temperature calibration phase, a thermal meter was used to probe the exact temperature inside the heating chamber. When the temperature needed to be adjusted to a different value, at least 5 minutes of waiting time was required to ensure a new stable ambient temperature.
To apply a constant pressure gradient across the device, the pressure difference between inlet and outlet reservoir was generated hydrostatically by fixing the difference between inlet and outlet water column height (FIG. 55A).
To capture the movement of RBCs inside the microchannels, a CCD camera (Hamamatsu Photonics, C4742-80-12AG, Japan) was connected to the inverted fluorescent microscope (Olympus IX71, Center Valley, Pa.). Images were automatically acquired by IPLab (Scanalytics, Rockville, Md.) at 100 ms time interval and the post-imaging analysis was done using imageJ. The mobility of individual RBCs was defined as the distance the cells moved divide by the time in seconds.

The test system of assay [2] is RBCs. Description: Deformability cytometer: velocity/passage of glutaraldehyde-treated RBCs through constriction channels. The assay is classed as cell-based, human. The procedure:
FIG. 5B depicts the results of an experiment evaluating the velocity at different glutaraldehyde concentrations of RBCs moving through the two pore geometries. RBCs were treated with the indicated concentrations of glutaraldehyde for 30 minutes in PBS and then washed 3 times. The pressure difference/length was approximately 0.61 Pa/μm.
PBS was mixed with 0.2% w/v Pluronic F-108 (BASF, Mount Olive, N.J.) and 1% w/v Bovine Serum Albumin (BSA) (Sigma-Aldrich, St. Louis, Mo.) as a stock solution to prevent RBC adhesion to the device walls. For the fluorescent bead experiments, 200 nm FluoSpheres europium luminescent microspheres (Molecular Probes, Eugene, Oreg.) diluted to a final concentration of 1.25×10^−5 percent solids were used.
In experiments involving blood, 1 μl of whole blood (−50% hematocrit) was diluted in 100 μl of the PBS-pluronic-BSA solution for all of the experiments. In experiments involving parasites that express GFP, no further treatment was performed. In experiments involving healthy RBCs, 1 μl of whole blood (Research Blood Components, Brighton, Mass.), 1 μl of 50 μg/ml of Cell Tracker Orange (Invitrogen, Carlsbad, Calif.), and 98 μl of PBS were mixed with the indicated concentration of glutaraldehyde and allowed to sit for 30 minutes. The sample was then washed 3 times with the PBS-Pluronic-BSA solution. In experiments involving reticulocytes, 1 μl of whole blood, 89 μl of the PBS-Pluronic-BSA solution, and 10 μl of 1×10^−6M thiazole orange were mixed and allowed to sit for 20 minutes before starting experiments. Videos were obtained in which reticulocytes appear as uniformly fluorescent cells under the GFP filter set, while mature RBCs appear as shadows.
The PBS-Pluronic-BSA solution was pumped through the device for 30 minutes to coat the device walls with Pluronic and BSA. The RBC-PBS-Pluronic-BSA suspension was then injected into the device. Differences in pressure between the two reservoirs were generated hydrostatically by a difference in water column height. […]

Assay [3] deals with WT T cells. The assay is described as follows: FACS analysis of phenotype of T cells induced to migrate by CCL19. In kind it is cell-based, mouse. The following applies: after CCL19 exposure (100 ng/mL) for seven hours. Here is the method: FIG. 68 depicts results of a FACS analysis of phenotype of naïve WT T cells induced to migrate by the chemokine CCL19. T cells were first gated on PI to exclude dead cells. The cell samples tested were naïve T cells not exposed to CCL 19 (A, D), cells that remained in the insert after CCL19 exposure (100 ng/mL) for seven hours (B, E), and cells that migrated across the insert membrane after the same chemokine treatment (C, F).
(§1) Cells from the peripheral lymph nodes and the spleen of Balb/c mice and WAS−/− mice on Balb/c background were pooled and enriched using the EasySep Mouse CD8+ T Cell Enrichment Kit from STEMCELL Technologies (British Columbia, Canada). Enrichment was confirmed using fluorescence-activated cell sorting (FACS) by staining the cells with FITC/anti-Thy1.2 and PE/anti-CD8α antibodies (Abs). The memory T cell population was assessed by evaluating the expression of CD44 and CD62L via FACS. T cells in an activation medium with 100 units/mL IL-2 and 1% anti-CD28 Ab were activated by plate-bound anti-CD3 Abs for 4 day at 37° C. The activation medium included RPMI with 10% FBS, 10 mM HEPES (1M), 1% NEAA, 1% sodium pyruvate (100 mM), 50 μM (β-mercaptoethanol, 4 mM L-glutamine, and 100 μg/mL Pen/Strep. Cell activation was verified via FACS measurement of CD25.
For orientation: Flow cytometry measures light scatter and fluorescence of single cells or particles in a stream.

Assay [4] concerns WAS−/− T cells. Description: In vitro Transwell cell migration toward CCL19. The assay is classed as cell-based, mouse. The settings on record: after seven hours of exposure to CCL19 (100 ng/mL), 5-μm pore Transwell. The procedure:
as §1, with “CD25. Enriched WT and WAS−/− T cells in DMEM with 1% BSA and 0.1% Pen/Strep were induced to migrate through polycarbonate Transwell inserts (Costar, Cambridge, Mass.) with 5-μm pores in a 24-well plate toward a CCL19 chemokine source (R&D Systems, Minneapolis, Minn.). Inserts contained 5×10^5 cells in 100 μL of medium, and wells contained 1 mL of medium with either no CCL19 or 100 ng/mL of CCL19. Cells were allowed to migrate for ˜7 hours at 37° C., and those that crossed the membrane were collected and used for MPA studies.” for “CD25.”

The subject of assay [5] is WT T cells. Description: Micropipette aspiration of CCL19-stimulated migratory T cells. The assay is classed as cell-based, mouse. The procedure:
Enriched WT and WAS−/− T cells in DMEM with 1% BSA and 0.1% Pen/Strep were induced to migrate through polycarbonate Transwell inserts (Costar, Cambridge, Mass.) with 5-μm pores in a 24-well plate toward a CCL19 chemokine source (R&D Systems, Minneapolis, Minn.). Inserts contained 5×10^5 cells in 100 μL of medium, and wells contained 1 mL of medium with either no CCL19 or 100 ng/mL of CCL19. Cells were allowed to migrate for ˜7 hours at 37° C., and those that crossed the membrane were collected and used for MPA studies.
3×10^5 cells in 100 μL RPMI with 10% FBS and 1% HEPES was stained with 10 μL trypan blue. The mixture was added to 600 μL of either the RPMI medium or the T cell activation medium with IL-2 for naïve and activated T cell testing. Migratory T cells were tested in the medium used for migration. The MPA device was based on the design of Hochmuth et al (18). The aspiration rate and volume were 36 mL/hr and 2 mL, corresponding to a total pressure of ˜400 Pa. The cell movement in the micropipette was recorded with a CCD camera. Aspirations were performed at approximately room temperature.
MPA data were fitting using the half-space model (77) described by the expressions: […]

On to `C[C@H]1[C@H](OC(=O)CCC(=O)O)O[C@@H]2O[C@@]3(C)CC[C@H]4[C@H](C)CC[C@@H]1[C@@]24OO3` [artesunate], for which the mobility decrease entry is “smaller and less pronounced mobility decrease” in assay [1] (2 and 4 hours after artesunate treatment); 30%-50% in assay [1] (6 hours after artesunate treatment, 0.01, 0.05 or 0.1 μg/ml). In addition, the “separation resolution between iRBCs and uRBCs” value in assay [1] is given as “almost doubled”; in assay [1] (listed as Artesunate) it was “doubled”. Further, the “effect on RBC deformability (cell mobility)” value was “stiffening effect on both iRBCs and uRBCs” in assay [1]; “significant decrease in cell mobility” in assay [1] (listed as Artesunate).
Regarding `O=CCCCC=O` [glutaraldehyde], the “RBC stiffness / velocity with increasing glutaraldehyde concentration” value in assay [2] (30 minutes treatment in PBS, approximately 0.61 Pa/μm) is given as “progressively stiffer with decreasing velocity”. Also, in assay [2] (glutaraldehyde concentrations greater than 0.003%), the “RBC passage at high glutaraldehyde concentration” value is on record as “most RBCs were held up at the entrance to the channel”. Moreover, in assay [2] (glutaraldehyde concentrations less than 0.002%, treatment for 30 minutes), the “RBCs passed through the channels” value is “more than 95%”.

B1: CCL19: chemokine (R&D Systems) used as chemoattractant for T cells (protein, UniProt Q99731 22-98, looked up)
C-C motif chemokine 19: GTNDAEDCCLSVTQKPIPGYIVRNFHYLLIKDGCRVPAVVFTTLRGRQLCAPPDQPWVERIIQRLQRTSAKMKRRSS
As to B1, the “migrating cells stained CD62L high and CD44 low (naive phenotype)” value in assay [3] was approximately 90%. The cells migrated in assay [4] is listed as approximately 6.4%. Besides, the “reduction of modulus from the value measured in the absence of CCL19” value in assay [5] was “more than 2 times”.

The record behind these values is patent US20110289043A1, “COMPUTATIONAL METHODS AND COMPOSITIONS” (Brown University Research Foundation, priority 2010, published 2011).
